Columns and labels:
Type in all cases: functional
Parameters in all cases: scale not given: the % may be the effect or the level left
[1] = Antioxidant activity assessed as inhibition of hydroxyl radical production after heat processing
[2] = Antioxidant activity assessed as inhibition of hydroxyl radical production at 0.05% concentration%
[3] = Antioxidant activity assessed as inhibition of hydroxyl radical production at 0.5% concentration%

For `CC(C)=CCC[C@](C)(O[C@@H]1O[C@H](CO[C@@H]2O[C@H](CO)[C@@H](O)[C@H](O)[C@H]2O)[C@@H](O)[C@H](O)[C@H]1O)[C@H]1CC[C@]2(C)[C@@H]1[C@H](O)C[C@@H]1[C@@]3(C)CC[C@H](O[C@@H]4O[C@H](CO)[C@@H](O)[C@H](O)[C@H]4O[C@@H]4O[C@H](CO)[C@@H](O)[C@H](O)[C@H]4O)C(C)(C)[C@@H]3CC[C@]12C`, which Activity [1] is on record?
The Activity was 42%.

What about the Activity [2] of the same compound?
The Activity was 47%.

What about the Activity [3] of the same compound?
The Activity was 24%.
